# Reference: patent publication EP4701641B1, “5-AMINO-2,3-DIHYDRO-1,4-PHTHAL[…] THE PROPHYLAXIS AND TREATMENT OF […]” (MetrioPharm AG, priority 2023, dated 2025)
# Read-outs that look alike come from different tables or passages of the source.
# What was measured:
# [1] = system: Coronary artery smooth muscle cells; details: added 1 hour before stimulation with IL-1β, TNF-α and IFN-γ, 48 hours in culture, triplicates averaged
# Protocol: Coronary artery smooth muscle cells pooled from human donors (n = 3) were commercially acquired and cultured according to the recommendations of the manufacturer. They were stimulated with IL-1β, TNF-α and IFN-γ to emulate conditions of vascular inflammation. The […] were cultured in 96 well-plates until confluence. Details are described in Kunkel et al. (2004) FASEB J 18: 1279-1281). […] The substance was added at the indicated concentration 1 hour before stimulation and remained in culture for 48 hours. Each plate contained positive and negative controls (non-stimulated cells) as well as vehicle controls (buffer solution). Direct ELISA (enzyme-linked immunosorbent assay) was used to measure thrombomodulin levels. Soluble factors from supernatants were quantified using capture ELISA.
# Measurements were carried out in triplicates which were then averaged and divided by the average of vehicle control samples. Vehicle control samples were taken as 100%.
# [2] = system: hospitalized patients with moderate to severe COVID-19
# D-dimer = details: for D-dimer concentration (median of the group): plasma
# From the text: The study was randomized, double-blind, and placebo-controlled, with enrollment at 20 IEC (independent ethics committee)-approved sites across six countries (Bulgaria, France, Hungary, Italy Romania, Spain); a list of all participating sites is published on clinicaltrials.gov. (NCT04932941). This study was partially funded by the COVID-19 Horizon Europe work programme (Project No.: 101046182). The funder of the study had no role in study design, data collection, data analysis, data interpretation, or writing of the report.
# Further details on the in- and exclusion criteria are available on cliniclatrials.gov NCT04932941.
# Stratification factors included baseline COVID-19 severity and age-class (aged ≤ 65 years versus > 65 years).
# Patients were treated for 28 days. […] These patients were discharged from the hospital before and received medication (verum or placebo) for continuing self-treatment for the remaining time at home. After 60 days there was a follow-up visit.
# The D-dimer level is an important prognostic marker for COVID-19 severity. An elevated D-dimer level is associated with thromboembolic complications. For monitoring the development of this biomarker throughout the study blood samples were taken at Days 1, 7, 14, 21, 28 and 60. The D-dimer concentration was determined (PPD Central Lab, Zaventem, Belgium) from the plasma by means of monoclonal antibodies quantified in an ELISA (cf. Olson (2015) Adv Clin Chem 69: 1 - 46; Johnson et al. (2019) Am J Hematol 94: 833-839).
# SARS-CoV-2 = SARS-CoV-2 infected cells; from WO 2021/249667; cited from earlier work
compound,measurement,setting,value
"Nc1cccc2c(=O)[nH][nH]c(=O)c12.[Na] [5-amino-2,3-dihydro-1,4-phthalazinedione sodium salt]",thrombomodulin release (vehicle control = 100%),[1]; 62.5 µM,127.4%
same,thrombomodulin release (vehicle control = 100%),[1]; 250 µM,115.1%
same,thrombomodulin release (vehicle control = 100%),[1]; 1 mM,159.6%
same,thrombomodulin release (vehicle control = 100%),[1]; 4 mM,255.9%
same,disease resolution by Day 14 (patients),"[2]; 300 mg BID plus SoC, placebo group 31/43",69/82
same,effect on hemostasis (clinical parameters or adverse side effects),[2]; clinical study in COVID-19 patients,no evidence
same,D-dimer concentration (median of the group),D-dimer; day 60 (follow-up visit),138.0 ng/mL DDU
same,modelled effect on D-dimer levels compared to placebo,"D-dimer; post-hoc analysis, modelled, p<0.001, Fig. 1",significant decrease
same,D-dimer concentration (median of the group),"D-dimer; treatment day 1, 300 mg BID plus SoC",235.5 ng/mL DDU
same,D-dimer concentration (median of the group),"D-dimer; treatment day 7, 300 mg BID plus SoC",205.0 ng/mL DDU
same,D-dimer concentration (median of the group),"D-dimer; treatment day 14, 300 mg BID plus SoC",171.0 ng/mL DDU
same,D-dimer concentration (median of the group),"D-dimer; treatment day 21, 300 mg BID plus SoC",208.0 ng/mL DDU
same,D-dimer concentration (median of the group),"D-dimer; treatment day 28, 300 mg BID plus SoC",172.0 ng/mL DDU
same,replication of the virus,SARS-CoV-2,suppress dose-dependently
